The values that follow come from ChEMBL document CHEMBL5143744, “Discovery of Tenapanor: A First-in-Class Minimally Systemic Inhibitor of Intestinal Na+/H+ Exchanger Isoform 3” (ACS Med Chem Lett, 2022).

Activity calls are given as the source filed them. No cut-off for these calls is given here. A value given as a limit tells only on which side of the number the result lay.

The nature of series [1]: Drug metabolism in Sprague-Dawley rat at 30 mg/kg, po administered via gavage by LC-MS/MS analysis. To be noted: in vivo. The format is ADME, organism-based.
The next series concerns the target hERG (KCNH2) (Homo sapiens, UniProt Q12809). Nature of the series: Inhibition of human ERG at 10 uM relative to control. The format is toxicity.
In another series the test system is Rattus norvegicus. Put plainly: In vivo inhibition of NEH3 in Sprague-Dawley rat assessed as reduction in sodium excretion in urine at 0.1 to 3 mg/kg, po administered via gavage measured after 16 hrs by ion chromatography. The class given is functional, organism-based. As to conditions: dose 0.1-3 mg/kg.
Series [2] is described as follows: Toxicity in Sprague-Dawley rat assessed as change in aspartate aminotransferase level at 30 mg/kg, po administered for 7 days measured on day 8. To be noted: in vivo, 192 h, time 8 day. The format is organism-based.
Series [3] in a line: Toxicity in Sprague-Dawley rat assessed as change in alanine aminotransferase level at 30 mg/kg, po administered for 7 days measured on day 8. The format is organism-based. To be noted: in vivo, 192 h, time 8 day.
The target of series [4] is Sodium/hydrogen exchanger 3 (Rattus norvegicus, UniProt P26433). Nature of the series: Inhibition of rat NHE3 expressed in opossum kidney cells assessed as reduction in Na-HEPES buffer-mediated pH recovery in presence of NEH1 inhibitor ethyl isopropyl amiloride by BCECF-AM dye based fluorescence assay. The class given is cell-based, Kidney epithelial cell.
A short description of series [5]: In vivo inhibition of NEH3 in Sprague-Dawley rat assessed as increase in fecal water content at 0.1 to 3 mg/kg, po administered via gavage measured after 6 hrs. The format is functional. As to conditions: dose 0.1-3 mg/kg. The arrangement: scale not given: the % may be the effect or the level left.
A short description of series [6]: Toxicity in Sprague-Dawley rat assessed as gross pathological changes at 30 mg/kg, po administered for 7 days measured on day 8 by necropsy. The format is organism-based. To be noted: in vivo, 192 h, time 8 day.
Series [7] can be described thus: Drug metabolism in Sprague-Dawley rat feces at 0.1 mg/kg, po administered via gavage measured after 72 hrs by LC-MS/MS analysis. To be noted: in vivo. The class given is ADME, organism-based.
A short description of series [8]: Cmax in Sprague-Dawley rat at 30 mg/kg, po administered via gavage by LC-MS/MS analysis. The format is ADME, organism-based. The arrangement: dose 30 mg/kg, route po. To be noted: in vivo.
The nature of series [9]: Toxicity in Sprague-Dawley rat assessed as diarrhea at 30 mg/kg, po administered for 7 days. The class given is organism-based. To be noted: in vivo, 168 h, time 7 day.
Series [10] can be described thus: Toxicity in Sprague-Dawley rat assessed as pathological changes at 30 mg/kg, po administered for 7 days measured on day 8 by microscopy. As to conditions: in vivo, 192 h, time 8 day. The format is organism-based.
The nature of series [11]: Drug recovery in Sprague-Dawley rat feces at 0.1 mg/kg, po administered via gavage measured after 72 hrs by LC-MS/MS analysis. The class given is ADME, organism-based. As to conditions: faeces, read-out: Drug recovery.
Series [12] concerns the target T1, Sodium/hydrogen exchanger 3 (Homo sapiens, UniProt P48764).
T1 sequence (P48764 whole entry): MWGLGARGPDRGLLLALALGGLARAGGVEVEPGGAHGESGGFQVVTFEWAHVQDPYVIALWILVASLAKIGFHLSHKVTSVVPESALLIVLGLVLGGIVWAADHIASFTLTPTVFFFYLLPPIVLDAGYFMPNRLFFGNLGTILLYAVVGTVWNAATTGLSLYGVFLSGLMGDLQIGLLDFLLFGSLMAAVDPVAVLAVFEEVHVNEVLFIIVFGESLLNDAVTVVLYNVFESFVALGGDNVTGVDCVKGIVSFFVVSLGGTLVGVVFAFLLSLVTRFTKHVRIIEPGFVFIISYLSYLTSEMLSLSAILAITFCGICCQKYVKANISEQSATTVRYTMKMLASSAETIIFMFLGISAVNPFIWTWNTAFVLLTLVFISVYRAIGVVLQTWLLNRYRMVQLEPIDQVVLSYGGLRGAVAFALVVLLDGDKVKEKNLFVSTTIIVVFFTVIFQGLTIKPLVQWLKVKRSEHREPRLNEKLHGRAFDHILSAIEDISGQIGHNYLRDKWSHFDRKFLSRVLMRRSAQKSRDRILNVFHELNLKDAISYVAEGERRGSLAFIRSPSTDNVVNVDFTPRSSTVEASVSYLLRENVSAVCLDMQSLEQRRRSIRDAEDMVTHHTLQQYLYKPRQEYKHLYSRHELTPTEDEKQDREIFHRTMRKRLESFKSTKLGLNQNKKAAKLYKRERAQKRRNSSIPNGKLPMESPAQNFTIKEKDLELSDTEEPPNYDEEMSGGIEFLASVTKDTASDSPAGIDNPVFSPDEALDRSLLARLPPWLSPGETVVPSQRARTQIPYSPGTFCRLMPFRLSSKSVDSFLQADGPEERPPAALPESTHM
Nature of the series: Inhibition of human NHE3 expressed in opossum kidney cells assessed as reduction in Na-HEPES buffer-mediated pH recovery in presence of NEH1 inhibitor ethyl isopropyl amiloride by BCECF-AM dye based fluorescence assay. The class given is cell-based, Kidney epithelial cell.

Sequence of Sodium/hydrogen exchanger 3 (Rattus norvegicus, UniProt P26433) (P26433 whole entry): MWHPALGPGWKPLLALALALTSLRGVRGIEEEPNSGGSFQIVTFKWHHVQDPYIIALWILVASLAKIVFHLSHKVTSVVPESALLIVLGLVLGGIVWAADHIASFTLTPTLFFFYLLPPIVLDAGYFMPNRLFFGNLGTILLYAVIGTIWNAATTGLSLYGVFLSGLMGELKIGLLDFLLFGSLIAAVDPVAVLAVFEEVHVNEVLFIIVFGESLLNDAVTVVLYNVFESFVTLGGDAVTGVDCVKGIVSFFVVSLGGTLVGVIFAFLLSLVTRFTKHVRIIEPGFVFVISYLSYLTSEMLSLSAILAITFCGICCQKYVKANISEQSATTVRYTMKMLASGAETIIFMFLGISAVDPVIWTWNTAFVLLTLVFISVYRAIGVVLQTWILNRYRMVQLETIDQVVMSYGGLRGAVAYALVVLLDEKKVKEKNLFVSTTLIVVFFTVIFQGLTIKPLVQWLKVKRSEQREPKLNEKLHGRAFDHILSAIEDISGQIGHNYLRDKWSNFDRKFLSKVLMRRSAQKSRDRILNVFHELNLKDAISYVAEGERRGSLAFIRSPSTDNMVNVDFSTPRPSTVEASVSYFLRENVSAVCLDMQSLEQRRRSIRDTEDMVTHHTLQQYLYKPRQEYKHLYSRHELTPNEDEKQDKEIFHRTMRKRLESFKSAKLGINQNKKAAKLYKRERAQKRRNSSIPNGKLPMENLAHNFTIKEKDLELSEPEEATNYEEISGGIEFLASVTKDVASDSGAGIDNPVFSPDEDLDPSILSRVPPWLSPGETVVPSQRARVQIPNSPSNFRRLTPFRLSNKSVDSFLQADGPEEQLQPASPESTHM
Sequence of hERG (KCNH2) (Q12809 whole entry): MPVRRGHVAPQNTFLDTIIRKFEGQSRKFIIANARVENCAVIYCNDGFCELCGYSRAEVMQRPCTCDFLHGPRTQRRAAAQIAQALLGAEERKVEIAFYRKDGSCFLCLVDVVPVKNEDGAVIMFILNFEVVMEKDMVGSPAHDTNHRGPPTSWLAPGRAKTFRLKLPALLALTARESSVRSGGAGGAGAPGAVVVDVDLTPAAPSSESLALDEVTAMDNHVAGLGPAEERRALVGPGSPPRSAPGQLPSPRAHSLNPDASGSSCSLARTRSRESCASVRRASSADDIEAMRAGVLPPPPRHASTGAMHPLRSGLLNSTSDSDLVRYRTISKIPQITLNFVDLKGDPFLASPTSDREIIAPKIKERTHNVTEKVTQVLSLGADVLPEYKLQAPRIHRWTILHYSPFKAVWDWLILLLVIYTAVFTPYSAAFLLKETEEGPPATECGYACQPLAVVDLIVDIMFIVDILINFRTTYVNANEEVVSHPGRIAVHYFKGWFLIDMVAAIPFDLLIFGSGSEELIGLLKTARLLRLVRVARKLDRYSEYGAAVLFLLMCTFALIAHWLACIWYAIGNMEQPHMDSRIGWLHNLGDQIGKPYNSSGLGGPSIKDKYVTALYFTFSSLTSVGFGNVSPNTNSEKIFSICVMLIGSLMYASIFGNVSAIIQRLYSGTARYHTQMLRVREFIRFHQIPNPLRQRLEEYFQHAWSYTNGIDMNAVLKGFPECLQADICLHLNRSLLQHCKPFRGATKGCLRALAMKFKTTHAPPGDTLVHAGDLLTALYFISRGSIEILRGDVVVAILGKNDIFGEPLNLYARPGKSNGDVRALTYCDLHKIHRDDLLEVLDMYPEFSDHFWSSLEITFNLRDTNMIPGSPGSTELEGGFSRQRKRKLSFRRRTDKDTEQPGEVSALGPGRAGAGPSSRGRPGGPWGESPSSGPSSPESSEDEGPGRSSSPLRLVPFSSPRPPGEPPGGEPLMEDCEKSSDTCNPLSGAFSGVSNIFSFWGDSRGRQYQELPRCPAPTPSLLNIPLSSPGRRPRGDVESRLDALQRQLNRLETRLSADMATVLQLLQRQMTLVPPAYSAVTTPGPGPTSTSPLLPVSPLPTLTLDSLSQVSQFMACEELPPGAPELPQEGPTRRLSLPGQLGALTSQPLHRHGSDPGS

On to `CN1Cc2c(Cl)cc(Cl)cc2[C@H](c2cccc(S(=O)(=O)NCCOCCOCCNC(=O)NCCCCNC(=O)NCCOCCOCCNS(=O)(=O)c3cccc([C@@H]4CN(C)Cc5c(Cl)cc(Cl)cc54)c3)c2)C1` [TENAPANOR], for which the Drug metabolism result in [1] is “Metabolite_Notdetected”; in [7] it was “Metabolite_Detected”. Besides, on hERG (KCNH2), the inhibition at 10 µM was under 50%. The inhibition result in the series with Rattus norvegicus is “Active”. The Activity result in series [2] is listed as “Non-Toxic”; in series [3] it was “Non-Toxic”; in [5], 10%; in series [6] it was “Non-Toxic”; in series [9] it was “Toxic”; in [10], “Non-Toxic”. Besides, the IC50 in series [4] was 15.8 nM; in series [12], 0.501 nM. Moreover, the Cmax in series [8] was under 3 ng/mL. For the same compound, the dose excreted at 72 h in series [11] came out at 92%.
